In patent US11427553B2, “Dihydrooxadiazinones” (Bayer Aktiengesellschaft, priority 2017, dated 2022):

How the values were obtained:
HeLa cells = assay: Assay 1 cell proliferation measurement (CTG, 72 h), HeLa; format: cell-based, human; conditions: Homo sapiens, HeLa; Assay 1, 72 h, Cell Titer Glo; read-out: HeLa IC50 [nM] (Cervical cancer)
Procedure, shortened: (§1)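 CTG luminescence readout after 72 h compound exposure at 37 °C; 10-point 2.5-fold dilutions from 100 nM max final; DMSO 0.3% vehicle. IC50 from 4-parameter fit, normalised to 0 h plate (max inhibition) and DMSO (min inhibition).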

SK-MEL-3 cells = assay: Assay 1 cell proliferation measurement (CTG, 72 h), SK-MEL-3; format: cell-based, human; conditions: Homo sapiens, SK-MEL3; Assay 1, 72 h, Cell Titer Glo; read-out: SK-MEL-3 IC50 [nM] (melanoma)
Procedure, shortened: as §1

human full length PDE3A = human full length PDE3A (Homo sapiens (Human), UniProt Q14432); assay: Assay 4 PDE3A enzyme inhibition (3H-cAMP SPA); format: biochemical; conditions: Sf9 cell extract
Chain of human full length PDE3A (Q14432 whole entry): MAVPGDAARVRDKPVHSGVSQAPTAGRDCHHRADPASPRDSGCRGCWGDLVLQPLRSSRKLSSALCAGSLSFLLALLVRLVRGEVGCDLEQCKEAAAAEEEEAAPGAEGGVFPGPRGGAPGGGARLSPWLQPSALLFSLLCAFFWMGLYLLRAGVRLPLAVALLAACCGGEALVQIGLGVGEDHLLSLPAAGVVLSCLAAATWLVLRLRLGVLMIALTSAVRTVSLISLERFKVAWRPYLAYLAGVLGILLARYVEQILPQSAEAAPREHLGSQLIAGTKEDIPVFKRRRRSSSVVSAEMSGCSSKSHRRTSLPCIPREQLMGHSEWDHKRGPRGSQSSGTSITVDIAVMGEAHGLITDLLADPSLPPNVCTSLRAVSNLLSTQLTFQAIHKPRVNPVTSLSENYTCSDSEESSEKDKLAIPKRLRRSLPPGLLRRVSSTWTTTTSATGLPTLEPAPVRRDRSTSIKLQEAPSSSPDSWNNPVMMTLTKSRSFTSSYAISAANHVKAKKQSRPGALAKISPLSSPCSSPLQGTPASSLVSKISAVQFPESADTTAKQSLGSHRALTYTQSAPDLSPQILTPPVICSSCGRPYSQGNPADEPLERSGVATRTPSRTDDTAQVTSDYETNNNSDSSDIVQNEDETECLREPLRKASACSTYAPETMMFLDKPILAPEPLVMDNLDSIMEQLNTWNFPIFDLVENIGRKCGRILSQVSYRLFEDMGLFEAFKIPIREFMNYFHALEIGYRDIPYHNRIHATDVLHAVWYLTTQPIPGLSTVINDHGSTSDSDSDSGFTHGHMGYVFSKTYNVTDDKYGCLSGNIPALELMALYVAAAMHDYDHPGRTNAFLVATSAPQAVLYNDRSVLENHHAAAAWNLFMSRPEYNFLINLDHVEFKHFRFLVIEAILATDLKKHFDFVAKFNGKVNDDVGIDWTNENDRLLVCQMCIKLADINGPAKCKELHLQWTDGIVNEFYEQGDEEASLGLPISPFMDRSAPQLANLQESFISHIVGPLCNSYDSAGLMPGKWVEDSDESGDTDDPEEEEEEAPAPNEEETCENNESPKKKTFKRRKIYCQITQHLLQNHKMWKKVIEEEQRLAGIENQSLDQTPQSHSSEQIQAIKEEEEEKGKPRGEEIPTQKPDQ
Procedure, shortened: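 In this SPA format, the 60-min room-temperature reaction used 0.025 μCi [8-3H]cAMP and diluted full-length PDE3A from Sf9 cells. Percentage activity was plotted against log compound concentration to derive IC50.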

human full length PDE3B = human full length PDE3B (Homo sapiens (Human), UniProt Q13370); assay: Assay 5 PDE3B enzyme inhibition (3H-cAMP SPA); format: biochemical; conditions: Sf9 cell extract
Chain of human full length PDE3B (Q13370 whole entry): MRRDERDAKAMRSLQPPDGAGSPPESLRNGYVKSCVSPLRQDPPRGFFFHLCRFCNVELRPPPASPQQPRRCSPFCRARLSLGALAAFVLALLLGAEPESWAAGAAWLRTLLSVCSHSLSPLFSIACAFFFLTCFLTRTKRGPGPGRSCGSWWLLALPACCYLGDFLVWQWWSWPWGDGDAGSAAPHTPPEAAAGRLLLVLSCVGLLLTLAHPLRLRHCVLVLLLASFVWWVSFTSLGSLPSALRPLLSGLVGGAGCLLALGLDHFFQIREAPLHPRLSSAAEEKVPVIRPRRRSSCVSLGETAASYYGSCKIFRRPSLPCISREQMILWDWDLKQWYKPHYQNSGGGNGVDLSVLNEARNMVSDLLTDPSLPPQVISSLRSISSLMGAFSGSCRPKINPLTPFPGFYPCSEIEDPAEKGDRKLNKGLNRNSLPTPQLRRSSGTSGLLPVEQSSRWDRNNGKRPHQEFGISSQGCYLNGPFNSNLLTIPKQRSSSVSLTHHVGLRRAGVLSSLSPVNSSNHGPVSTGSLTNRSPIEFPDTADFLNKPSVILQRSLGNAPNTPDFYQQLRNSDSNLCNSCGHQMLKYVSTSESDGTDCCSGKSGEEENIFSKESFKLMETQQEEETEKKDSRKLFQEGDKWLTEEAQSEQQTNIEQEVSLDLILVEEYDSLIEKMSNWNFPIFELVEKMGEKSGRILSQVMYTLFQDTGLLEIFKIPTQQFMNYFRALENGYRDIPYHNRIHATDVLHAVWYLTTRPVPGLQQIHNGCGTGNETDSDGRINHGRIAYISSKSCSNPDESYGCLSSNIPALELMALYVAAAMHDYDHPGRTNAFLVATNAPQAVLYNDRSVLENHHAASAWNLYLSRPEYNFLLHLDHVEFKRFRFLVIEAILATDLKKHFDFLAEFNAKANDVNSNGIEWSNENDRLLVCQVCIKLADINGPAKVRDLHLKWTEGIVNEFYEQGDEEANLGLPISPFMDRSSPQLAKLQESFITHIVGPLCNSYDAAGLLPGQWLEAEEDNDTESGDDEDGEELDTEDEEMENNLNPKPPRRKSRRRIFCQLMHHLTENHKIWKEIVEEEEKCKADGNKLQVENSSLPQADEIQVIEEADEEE
Procedure, shortened: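 Sf9 cell extract expressing human full-length PDE3B, diluted for linear kinetics (<70% substrate use), in 50 mM Tris/HCl pH 7.5, 8.3 mM MgCl2, 1.7 mM EDTA. [8-3H]cAMP substrate, 60 min at room temperature; stopped with yttrium SPA beads, scintillation counting. IC50 from sigmoidal activity vs log concentration curves.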

Row | SMILES | IC50 (HeLa cells) | IC50 (SK-MEL-3 cells) | IC50 (human full length PDE3A) | IC50 (human full length PDE3B)
1 | CC1CN(c2ccc(C3=NNC(=O)OC3)cc2F)CC(C)O1 (stereo not shown) [Example 24, 5-{4-[2,6-Dimethylmorpholin-4-yl]-3-fluorophenyl}-3,6-dihydro-2H-1,3,4-oxadiazin-2-one] | 55 nM | > 100 nM | 180 nM | 110 nM
2 | C[C@@H]1OC(=O)NN=C1c1ccc(-c2ccccc2C#N)c(C(F)(F)F)c1 [Example 172, 4′-[(6S)-6-Methyl-2-oxo-3,6-dihydro-2H-1,3,4-oxadiazin-5-yl]-2′-(trifluoromethyl)[1,1′-biphenyl]-2-carbonitrile] | 37 nM | 48 nM | 290 nM | 520 nM
3 | N#Cc1cc(C2=NNC(=O)OC2)cc(Cl)c1N1CCOCC1 [Example 23, 3-Chloro-2-(morpholin-4-yl)-5-(2-oxo-3,6-dihydro-2H-1,3,4-oxadiazin-5-yl)benzonitrile] | 45 nM | > 100 nM | 380 nM | 270 nM
4 | Cc1cc(C2=NNC(=O)OC2)ccc1-c1cncnc1 [Example 14, 5-[3-Methyl-4-(pyrimidin-5-yl)phenyl]-3,6-dihydro-2H-1,3,4-oxadiazin-2-one] | 49 nM | 64 nM | 63 nM | 71 nM
5 | CC1OC(=O)NN=C1c1cc(F)c(N2CCOCC2)c(F)c1 (racemic) [Example 17, (rac)-5-[3,5-Difluoro-4-(morpholin-4-yl)phenyl]-6-methyl-3,6-dihydro-2H-1,3,4-oxadiazin-2-one] | 7 nM | 17 nM | 25 nM | 17 nM
6 | O=C1NN=C(c2ccc(-c3cccc(F)c3)c(F)c2)CO1 [Example 117, 5-(2,3′-Difluoro[1,1′-biphenyl]-4-yl)-3,6-dihydro-2H-1,3,4-oxadiazin-2-one] | 5 nM | 9 nM | 77 nM | 95 nM
7 | O=C1NN=C(c2ccc(-c3ccc(F)c(F)c3)c(F)c2)CO1 [Example 107, 5-(2,3′,4′-Trifluoro[1,1′-biphenyl]-4-yl)-3,6-dihydro-2H-1,3,4-oxadiazin-2-one] | 6 nM | 12 nM | 150 nM | 160 nM
8 | C[C@@H]1OC(=O)NN=C1c1ccc(-c2ccc3[nH]ccc3c2)c(C(F)(F)F)c1 [Example 173, (6S)-5-[4-(1H-Indol-5-yl)-3-(trifluoromethyl)phenyl]-6-methyl-3,6-dihydro-2H-1,3,4-oxadiazin-2-one] | 15 nM | 27 nM | 58 nM | 58 nM
9 | CC1OC(=O)NN=C1c1ccc(N2CCOCC2)cc1 (racemic) [Example 20, (rac)-6-Methyl-5-[4-(morpholin-4-yl)phenyl]-3,6-dihydro-2H-1,3,4-oxadiazin-2-one] | 15 nM | 41 nM | 200 nM | 100 nM
10 | O=C1NN=C(c2ccc(-c3ccc(O)cc3)c(F)c2)CO1 [Example 105, 5-(2-Fluoro-4′-hydroxy[1,1′-biphenyl]-4-yl)-3,6-dihydro-2H-1,3,4-oxadiazin-2-one] | 8 nM | 15 nM | 48 nM | 100 nM
11 | C[C@@H]1OC(=O)NN=C1c1ccc(-c2cccc(O)c2)c(C(F)(F)F)c1 [Example 175, (6S)-5-[3′-Hydroxy-2-(trifluoromethyl)[1,1′-biphenyl]-4-yl]-6-methyl-3,6-dihydro-2H-1,3,4-oxadiazin-2-one] | 6 nM | 3 nM | 26 nM | 24 nM
12 | O=C1NN=C(c2ccc(-c3cccc(F)c3F)c(F)c2)CO1 [Example 109, 5-(2,2′,3′-Trifluoro[1,1′-biphenyl]-4-yl)-3,6-dihydro-2H-1,3,4-oxadiazin-2-one] | 4 nM | 9 nM | 46 nM | 32 nM

The remaining lines, values ahead:

Row | IC50 (HeLa cells) | IC50 (SK-MEL-3 cells) | IC50 (human full length PDE3A) | IC50 (human full length PDE3B) | SMILES
13 | 22 nM | 44 nM | 31 nM | 78 nM | Cn1ncc2ccc(-c3ccc(C4=NNC(=O)OC4)cc3C(F)(F)F)cc21 [Example 75, 5-[4-(1-Methyl-1H-indazol-6-yl)-3-(trifluoromethyl)phenyl]-3,6-dihydro-2H-1,3,4-oxadiazin-2-one]
14 | 55 nM | 64 nM | 170 nM | 250 nM | Cc1ccc(-c2ccc(C3=NNC(=O)OC3)cc2C(F)(F)F)cc1N [Example 42, 5-[3′-Amino-4′-methyl-2-(trifluoromethyl)biphenyl-4-yl]-3,6-dihydro-2H-1,3,4-oxadiazin-2-one]
15 | 8 nM | 20 nM | 140 nM | 180 nM | O=C1NN=C(c2ccc(Br)c(C(F)(F)F)c2)CO1 [Intermediate 78, 5-[4-bromo-3-(trifluoromethyl)phenyl]-3,6-dihydro-2H-1,3,4-oxadiazin-2-one]
16 | 30 nM | 49 nM | > 1000 nM | > 1000 nM | O=C1NN=C(c2ccc(-c3ccc(C(F)(F)F)cc3)c(C(F)(F)F)c2)CO1 [Example 51, 5-[2,4′-Bis(trifluoromethyl)biphenyl-4-yl]-3,6-dihydro-2H-1,3,4-oxadiazin-2-one]
17 | 6 nM | 14 nM | 90 nM | 131 nM | CC(C)CCNc1ccc(C2=NNC(=O)OC2)cc1C(F)(F)F [Example 220, 5-{4-[(3-Methylbutyl)amino]-3-(trifluoromethyl)phenyl}-3,6-dihydro-2H-1,3,4-oxadiazin-2-one]
18 | > 100 nM | 25600 nM | 200 nM | 160 nM | O=C1NN=C(c2ccc(-c3c[nH]nc3C(F)(F)F)c(C(F)(F)F)c2)CO1 [Example 130, 5-{3-(Trifluoromethyl)-4-[3-(trifluoromethyl)-1H-pyrazol-4-yl]phenyl}-3,6-dihydro-2H-1,3,4-oxadiazin-2-one]
19 | > 84 nM | > 100 nM | > 280 nM | > 910 nM | CN(C)CCNc1ccc(C2=NNC(=O)OC2)cc1C(F)(F)F [Example 323, 5-[4-{[2-(dimethylamino)ethyl]amino}-3-(trifluoromethyl)phenyl]-3,6-dihydro-2H-1,3,4-oxadiazin-2-one]
20 | 2 nM | 3 nM | 66 nM | 100 nM | O=C1NN=C(c2ccc(NCC3CCCO3)c(C(F)(F)F)c2)CO1 (racemic) [Example 215, (rac)-5-[4-({[Oxolan-2-yl]methyl}amino)-3-(trifluoromethyl)phenyl]-3,6-dihydro-2H-1,3,4-oxadiazin-2-one]
21 | 4 nM | 6 nM | 81 nM | 152 nM | Cn1cc(-c2ccc(C3=NNC(=O)OC3)cc2OC(F)(F)F)cn1 [Example 68, 5-[4-(1-Methyl-1H-pyrazol-4-yl)-3-(trifluoromethoxy)phenyl]-3,6-dihydro-2H-1,3,4-oxadiazin-2-one]
22 | > 100 nM | > 100 nM | 11 nM | 16 nM | Cc1n[nH]c2cc(-c3ccc(C4=NNC(=O)OC4)cc3C(F)(F)F)ccc12 [Example 327, 5-[4-(3-methyl-1H-indazol-6-yl)-3-(trifluoromethyl)phenyl]-3,6-dihydro-2H-1,3,4-oxadiazin-2-one]
23 | 6 nM | 14 nM | 85 nM | 180 nM | O=C1NN=C(c2ccc(-c3ccc4cc[nH]c4c3)c(C(F)(F)F)c2)CO1 [Example 62, 5-[4-(1H-Indol-6-yl)-3-(trifluoromethyl)phenyl]-3,6-dihydro-2H-1,3,4-oxadiazin-2-one]
24 | > 100 nM | > 100 nM | 78 nM | 31 nM | Cn1cc(-c2ccc(C3=NNC(=O)OC3)cc2C(F)(F)F)c(C(F)(F)F)n1 [Example 127, 5-{4-[1-Methyl-3-(trifluoromethyl)-1H-pyrazol-4-yl]-3-(trifluoromethyl)phenyl}-3,6-dihydro-2H-1,3,4-oxadiazin-2-one]
25 | 6 nM | 9 nM | 75 nM | 120 nM | O=C1NN=C(c2ccc(N3CC[C@@H](O)C3)c(C(F)(F)F)c2)CO1 [Example 257, 5-{4-[(3R)-3-Hydroxypyrrolidin-1-yl]-3-(trifluoromethyl)phenyl}-3,6-dihydro-2H-1,3,4-oxadiazin-2-one]
26 | 3 nM | 6 nM | 100 nM | 250 nM | O=C1NN=C(c2ccc(C3=CCCC3)c(F)c2)CO1 [Example 83, 5-[4-(Cyclopent-1-en-1-yl)-3-fluorophenyl]-3,6-dihydro-2H-1,3,4-oxadiazin-2-one]
27 | 3 nM | 5 nM | 47 nM | 63 nM | CCNc1ccc(C2=NNC(=O)OC2)cc1C(F)(F)F [Example 67, 5-[4-(Ethylamino)-3-(trifluoromethyl)phenyl]-3,6-dihydro-2H-1,3,4-oxadiazin-2-one]
28 | 48 nM | > 100 nM | 65 nM | 30 nM | Cc1nn(C)cc1-c1ccc(C2=NNC(=O)OC2)cc1C(F)(F)F [Example 52, 5-[4-(1,3-Dimethyl-1H-pyrazol-4-yl)-3-(trifluoromethyl)phenyl]-3,6-dihydro-2H-1,3,4-oxadiazin-2-one]
